Data from patent US8343580B2, “Organometallic compounds” (Rohm and Haas Electronic Materials LLC, priority 2009, dated 2013).

Legend:
[1] = Solubility in organic solvents at room temperature by direct dissolution method; type: physicochemical; conditions: for Solubility: room temperature; for Solubility in aromatic solvents: toluene and tetralin, by NMR spectroscopy and direct dissolution method
Procedure: The solubility of N,N′-di-tert-butylacetamidinato-N,N′-di-tert-butylacetamidinatocarbamoyl dicarbonyl Ruthenium(II) (“Ru-Cbm-Invention”, from Example 1) and bis(N,N′-di-tert-butylacetamidinato) dicarbonyl Ruthenium(II) (“Ru-AMD-Comparative”) were determined at room temperature in a variety of solvents by direct dissolution method. The solid Ru-AMD-Comparative compound was prepared by the synthetic route described in R. Gordon et al., The Open Inorganic Chemistry Journal, 2 (2008) 11. Compounds with less than 0.01 wt % dissolved were considered to be sparingly soluble.

[2] = Decomposition temperature by accelerated rate calorimetry (ARC); type: physicochemical; conditions: ARC adiabatic calorimeter, self-heating exceeding 0.02° C./minute
Procedure: The decomposition temperature of N,N′-di-tert-butylacetamidinato-N,N′-di-tert-butylacetamidinatocarbamoyl dicarbonyl Ruthenium(II) (“Ru(AMD)-Cbm”) was determined using accelerated rate calorimetry (ARC™ adiabatic calorimeter available from Arthur D. Little). A sample of the compound was placed in a spherical bomb that was connected to a sealed pressure measurement system. A thermocouple was attached to the outside of the bomb and the bomb was placed in the center of the calorimeter assembly. The calorimeter assembly has 3 zones, each zone having its own thermocouple and heaters. The ARC™ calorimeter uses a heat-wait-search-exotherm program. The calorimeter and the sample were heated to a start temperature. The sample and calorimeter temperatures equilibrated during the wait portion of the program. Next, the calorimeter monitored the sample for self-heating (exceeding 0.02° C./minute) during the search portion of the program to determine the onset temperature of the exotherm. To be useful in ALD processes, a precursor should not decompose at temperatures at or below 140° C., and preferably not at or below 150° C.

[3] = Mixture of Diphenyl ether and Biphenyl
[4] = Polyethylene glycol dibutyl ether

Solubility ([1]; Cyclohexylbenzene)	Solubility ([1]; Cyclohexylbenzene:LAB (1:1))	Solubility ([1]; LAB)	Solubility [1, 3]	Solubility ([1]; Pentamethyldiethylenetriamine)	Solubility [1, 4]	Solubility ([1]; THF)	Solubility ([1]; Tetralin)	Solubility ([1]; Toluene)	Increase of solubility as compared to Ru-AMD ([1]; in tetrahydrofuran)	Solubility ([1]; n-Octane)	Solubility in aromatic solvents [1]	Temperature up to which the sample was stable (decomposition, onset of exotherm) [2]	SMILES
6.0 wt %	6.0 wt %	3.0 wt %	12.0 wt %	15.0 wt %	8.0 wt %	43.6 wt %	8.5 wt %	38.5 wt %	62 fold	2.3 wt %	soluble	up to 250 °C	CC1=[N+](C(C)(C)C)[Ru-4]2([C]#[O+])([C]#[O+])([C](=O)N1C(C)(C)C)[N](C(C)(C)C)C(C)=[N+]2C(C)(C)C [Ru-Cbm, N,N′-di-tert-butylacetamidinato-N,N′-di-tert-butylacetamidinatocarbamoyl dicarbonyl Ruthenium(II)]
<0.01 wt %	<0.01 wt %	<0.01 wt %	<0.01 wt %	<0.01 wt %	<0.01 wt %	0.7 wt %	<0.01 wt %	<0.01 wt %		insoluble	little to no solubility		CC(=NC(C)(C)C)[N]([Ru][N](C(C)=NC(C)(C)C)C(C)(C)C)C(C)(C)C.[C-]#[O+].[C-]#[O+] [Ru-AMD, bis(N,N′-di-tert-butylacetamidinato) dicarbonyl Ruthenium(II), reference compound]
